Assay results taken from US20240207379A1, “STRATEGIES TO PREVENT AND/OR TREAT IMMUNE RESPONSES TO SOLUBLE ALLOFACTORS” (IMCYSE SA, priority 2008, published 2024).

Experiments:
[1] = test system: CFSE-labelled CD4(F8-) effector CD4+ T cells; experiment: Apoptosis of factor VIII-specific effector CD4+ T cells by cytolytic CD4+ T cells elicited with modified factor VIII epitope (Annexin V / 7-AAD); type: cell-based, factor VIII KO mice; conditions: APC (spleen B cells) loaded with 5 μg/ml huFVIII and 1 µM peptide, 72 h at 37° C., baseline mortality subtracted
From the text: FIG. 2. Apoptosis of allofactor-specific effector T-cells by cytolytic CD4+ T-cells induced by a T-cell epitope derived from said allofactor and modified by attaching a thioreductase motif. The allofactor used was factor VIII. See Example 5 for more details.
Polyclonal effector CD4+ T cells were obtained from the spleen of factor VIII KO mice immunised with 2 IU of recombinant human FVIII (CD4(F8-)) and purified using anti-CD4 magnetic beads. The cells were then labelled with CFSE.
Induction of apoptosis as measured by of CFSE-labelled cells was then measured by Annexin V and 7-AAD staining after incubating such cells with APC (spleen B cells) loaded with 5 μg/ml huFVIII and 1 µM of peptide of SEQ ID NO:5 (CGHCGGFTNMFATWSPSK, corresponding to the 2196-2207 amino acid sequence of the C2 domain of human factor VIII, modified by addition of a thioreductase motif (underlined) separated by 2 glycines from the Factor VIII T-cell epitope). Apoptosis was measured after 72 h culture at 37° C. When CFSE-labelled CD4(F8-) cells were co-cultured with CD4+ T cells obtained from mice immunised with a synthetic peptide of SEQ ID NO:5 (cytolytic CD4+ T cells), significant apoptosis was induced. […] When CFSE-labelled CD4(F8−) cells were co-cultured in the presence of a double number of unlabeled CD4(F8−) cells, no apoptosis was induced (“CD4(F8−)” caption in FIG. 2). […]

murine splenic B cells = experiment: Induction into apoptosis of splenic B cells of naïve mice by CD4+ T cells expanded with peptide (annexin V / 7-AAD Facs); type: cell-based, C57BI/6 mice
Description: FIG. 1. The bars in this Figure illustrate the viability of murine splenic B cells incubated under different conditions and evaluated by Facs analysis of annexin V binding and 7-AAD (two markers of apoptosis). • B (wt-pep): murine splenic B cells incubated with natural (wild-type) T-cell epitope derived from human anti-fVIII antibody; • B (cc-pep): murine splenic B cells incubated with T-cell epitope derived from human anti-fVIII antibody, wherein said T-cell epitope is modified by attaching the amino acids CHGC (SEQ ID NO: 20) to the N-terminus of the epitope; • B (cc-pep)+ T (cc-pep): murine splenic B cells incubated with modified anti-fVIII antibody T-cell epitope and with T cells expanded with modified T-cell epitope (modification as in “B (cc-pep)”); • B (wt-pep)+ T (cc-pep): murine splenic B cells incubated with wild-type anti-fVIII antibody T-cell epitope and T cells expanded with the corresponding modified T-cell epitope.
It was determined whether naïve B cells presenting a class II restricted T cell epitope derived from a BCR idiotype could be deleted by recognition and activation of T cells elicited to a specific anti-factor VIII antibody carrying the same idiotype. […]

CGHCGGFTNMFATWSPSK (modified human factor VIII T-cell epitope; MISC_FEATURE - thioreductase motif; MISC_FEATURE - Gly-Gly-linker) [SEQ ID NO:5]
apoptosis of CFSE-labelled CD4(F8-) cells co-cultured with cytolytic CD4+ T cells from mice immunised with the peptide ([1]; CD4(F8+) pool1): 6.6%
apoptosis of CFSE-labelled CD4(F8-) cells co-cultured with cytolytic CD4+ T cells from mice immunised with the peptide ([1]; CD4(F8+)pool2): 8.4%

CHGCYCAVPDPDA (modified T-cell epitope of CDR3 of anti-factor VIII antibody BO2C11; MISC_FEATURE - thioreductase motif) [SEQ ID NO:2]
induction into apoptosis of B cells by T cells expanded with the peptide (murine splenic B cells; B cells loaded with either peptide of SEQ ID NO:1 or SEQ ID NO:2, FIG. 1): induced into apoptosis

YCAVPDDPDA (T-cell epitope of CDR3 of anti-factor VIII antibody BO2C11) [SEQ ID NO:1, reference compound]
influence on the survival of control B cells of T cells expanded with the peptide (murine splenic B cells; incubation period of 18 h, data not shown): no or only little influence
